Data on nine compounds can be found in PMC5688144, “Assay interference and off-target liabilities of reported histone acetyltransferase inhibitors” (Nature Communications, 2017).

For data set [1], the system named is panel of proteases, kinases, and phosphatases. Briefly: Pilot selectivity panel (Reaction Biology). It is filed as biochemical. The settings on record: 10 µM compound. As for the experimental part: (§1) Selectivity profiles vs. HATs, HDACs, SIRTs, HMTs, proteases, kinases, and phosphatases were performed by Reaction Biology Corporation (Malvern, PA; Fig. 3 and Supplementary Fig. 3). Percent activity was normalized to DMSO-only controls. Reference control compounds were included in each assay.
(§2) Relevant reaction procedures for each target class are briefly summarized (see reactionbiology.com for additional details). HATs: reaction buffer 50 mM Tris–HCl, pH 8.0, 50 mM NaCl, 0.1 mM EDTA, ± 1 mM DTT, 1 mM PMSF, 1% DMSO; substrate [^3H]-acetyl-CoA; reaction time 1 h; end-point measurement. […] HMTs: reaction buffer 50 mM Tris–HCl, pH 8.0, 0.01% Brij35, 1 mM EDTA, 1 mM DTT, 1 mM PMSF, 1% DMSO (EZH2); reaction buffer 50 mM Tris–HCl, pH 7.5, 5 mM EDTA, 0.01% Brij35, 5 mM DTT, 0.1 mM PMSF, 5% glycerol, 1% DMSO; 50 mM Tris–HCl, pH 8.5, 5 mM MgCl2, 50 mM NaCl, 0.01 Brij35, 1 mM DTT, 1% DMSO (G9a); methyl donor 1 μM S-Adenosyl-L-[methyl-^3H]-methionine; substrate 5 μM histone proteins or 0.05 mg mL^−1 nucleosomes; pre-incubation time 10–15 min; reaction time 0.5–1 h; end-point measurement. Caspases: reaction buffer 50 mM HEPES, pH 7.4, 1 M citrate, 100 mM NaCl, 0.01% CHAPS, 0.1 mM EDTA, 10 mM DTT; fluorogenic peptide substrate; pre-incubation time 10 min; reaction time 2 h; time-course measurement. Kinases: reaction buffer 20 mM HEPES, pH 7.5, 10 mM MgCl2, 1 mM EGTA, 0.02% Brij35, 0.02 mg mL^−1 BSA, 0.1 mM Na3VO4, 2 mM DTT, 1% DMSO; substrate [^33P]-ATP; reaction time 2 h; end-point measurement.

For data set [2], the target named is 200 kinases. The data set is described as follows: Expanded kinase profile (Cerep/Eurofins). It is filed as biochemical. The settings on record: 10 μM compound. The procedure:
Assays were performed using either homogeneous time-resolved fluorescence or LANCE® time-resolved-FRET formats (see cerep.fr for additional details). […] Reference control compounds were included in each assay.

Data set [3] has as its system SAS. The arrangement: method as in ref 5 (Supplementary References). The settings on record: @ 10 µM; ref 5 (Supplementary References); cited from earlier work.
Data set [4] deals with MOZ. The settings on record: @ 10 µM; ref 5 (Supplementary References); cited from earlier work.
Data set [5] relates to Rtt109. The note with it: cited from earlier work.
Data set [6] concerns the target T1, PCAF (Homo sapiens, UniProt Q92831).
T1 construct: Reaction Biology Corporation (assays run by this contract lab)
The data set is described as follows: PCAF activity in presence and absence of DTT. It is filed as biochemical. The settings on record: 10 and 100 μM compound. As for the experimental part: as §1
as §2, with “Kinases: reaction buffer 20 mM HEPES, pH 7.5, 10 mM MgCl2, 1 mM EGTA, 0.02% Brij35, 0.02 mg mL^−1 BSA, 0.1 mM Na3VO4, 2 mM DTT, 1% DMSO; substrate [^33P]-ATP; reaction time 2 h; end-point measurement.” left out

Data set [7] has as its system MYST2. The note with it: cited from earlier work.
The subject of data set [8] is caspase 3/7 activity in HEK293T and MCF7 cells. Briefly: Live-cell caspase 3/7 activity. Format: cell-based. The settings on record: 24 h after compound addition. The procedure: (§3) For cell growth analyses, cells were seeded in 96-well plates, treated with compounds for the indicated times, and monitored over time in a live cell Incucyte™ ZOOM imager (Essen Biosciences). To label apoptotic and dead cells, caspase 3/7 activatable DEVD recognition motif NucView™ 488 DNA intercalating dye (1:1000 dilution, Essen Biosciences) and SYTOX™ green nucleic acid stain (1:1000 dilution, Invitrogen) were used respectively, following manufacturer instructions.

Data set [9] has as its system HEK293T and MCF7 cells. The data set is described as follows: Membrane permeability (SYTOX green uptake). It is filed as cell-based. The note with it: for membrane permeability: Sytox green dead-cell dye uptake. As for the experimental part:
as §3

For data set [10], the system named is MOF. The arrangement: method as in ref 19, 26 (Supplementary References). The note with it: original report; 26 (Supplementary References); cited from earlier work.
In data set [11] the target is T2, p300 (Homo sapiens, UniProt Q09472).
T2 construct: Reaction Biology Corporation (assays run by this contract lab)
The note with it: read-out: IC50 (µM), p300; original report; 22 (Supplementary References); cited from earlier work.

For data set [12], the system named is MYST4. The note with it: original report; ref 22 (Supplementary References); cited from earlier work.
The subject of data set [13] is KAT5. Set-up: method as in ref 22 (Supplementary References). The settings on record: original report; ref 22 (Supplementary References); cited from earlier work.
The subject of data set [14] is HEK293T and MCF7 cells. The data set is described as follows: Cell proliferation by cell confluence. It is filed as cell-based. The note with it: 30 µM compound; MCF7 and HEK293T cells. The procedure: Cells were cultured in DMEM supplemented with 10% fetal bovine serum (Winsent), penicillin (100 U mL^−1), and streptomycin (100 µg mL^−1). Compounds dissolved in DMSO or matching DMSO-only controls were added to cells for indicated times. Compound effects in cells were determined as described[67] and are outlined below.
as §3

“Also recorded” adds a separate entry of the source.

T1 sequence (Q92831 whole entry, species assumed): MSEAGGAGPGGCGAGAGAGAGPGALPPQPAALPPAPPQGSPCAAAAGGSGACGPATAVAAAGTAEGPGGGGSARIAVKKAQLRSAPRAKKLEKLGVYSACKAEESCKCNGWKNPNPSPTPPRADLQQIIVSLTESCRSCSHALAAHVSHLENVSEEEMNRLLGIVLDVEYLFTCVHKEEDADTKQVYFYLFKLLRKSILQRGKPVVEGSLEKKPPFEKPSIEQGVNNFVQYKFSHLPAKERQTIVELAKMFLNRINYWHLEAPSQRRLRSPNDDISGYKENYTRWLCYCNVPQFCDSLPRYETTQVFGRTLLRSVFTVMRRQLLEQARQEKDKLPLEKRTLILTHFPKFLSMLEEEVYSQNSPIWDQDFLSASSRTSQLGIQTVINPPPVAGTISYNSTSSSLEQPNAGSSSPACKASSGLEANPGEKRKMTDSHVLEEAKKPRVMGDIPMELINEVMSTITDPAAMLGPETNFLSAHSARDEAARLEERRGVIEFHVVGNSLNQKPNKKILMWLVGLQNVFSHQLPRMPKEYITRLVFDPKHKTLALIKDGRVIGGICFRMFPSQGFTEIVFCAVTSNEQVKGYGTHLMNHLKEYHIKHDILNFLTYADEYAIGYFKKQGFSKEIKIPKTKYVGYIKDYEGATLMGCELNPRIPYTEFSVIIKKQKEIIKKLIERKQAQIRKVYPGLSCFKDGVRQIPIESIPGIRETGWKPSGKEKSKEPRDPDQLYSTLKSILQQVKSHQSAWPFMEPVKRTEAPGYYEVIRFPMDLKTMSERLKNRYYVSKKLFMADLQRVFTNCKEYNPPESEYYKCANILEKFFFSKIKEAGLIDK
T2 sequence (Q09472 whole entry, species assumed): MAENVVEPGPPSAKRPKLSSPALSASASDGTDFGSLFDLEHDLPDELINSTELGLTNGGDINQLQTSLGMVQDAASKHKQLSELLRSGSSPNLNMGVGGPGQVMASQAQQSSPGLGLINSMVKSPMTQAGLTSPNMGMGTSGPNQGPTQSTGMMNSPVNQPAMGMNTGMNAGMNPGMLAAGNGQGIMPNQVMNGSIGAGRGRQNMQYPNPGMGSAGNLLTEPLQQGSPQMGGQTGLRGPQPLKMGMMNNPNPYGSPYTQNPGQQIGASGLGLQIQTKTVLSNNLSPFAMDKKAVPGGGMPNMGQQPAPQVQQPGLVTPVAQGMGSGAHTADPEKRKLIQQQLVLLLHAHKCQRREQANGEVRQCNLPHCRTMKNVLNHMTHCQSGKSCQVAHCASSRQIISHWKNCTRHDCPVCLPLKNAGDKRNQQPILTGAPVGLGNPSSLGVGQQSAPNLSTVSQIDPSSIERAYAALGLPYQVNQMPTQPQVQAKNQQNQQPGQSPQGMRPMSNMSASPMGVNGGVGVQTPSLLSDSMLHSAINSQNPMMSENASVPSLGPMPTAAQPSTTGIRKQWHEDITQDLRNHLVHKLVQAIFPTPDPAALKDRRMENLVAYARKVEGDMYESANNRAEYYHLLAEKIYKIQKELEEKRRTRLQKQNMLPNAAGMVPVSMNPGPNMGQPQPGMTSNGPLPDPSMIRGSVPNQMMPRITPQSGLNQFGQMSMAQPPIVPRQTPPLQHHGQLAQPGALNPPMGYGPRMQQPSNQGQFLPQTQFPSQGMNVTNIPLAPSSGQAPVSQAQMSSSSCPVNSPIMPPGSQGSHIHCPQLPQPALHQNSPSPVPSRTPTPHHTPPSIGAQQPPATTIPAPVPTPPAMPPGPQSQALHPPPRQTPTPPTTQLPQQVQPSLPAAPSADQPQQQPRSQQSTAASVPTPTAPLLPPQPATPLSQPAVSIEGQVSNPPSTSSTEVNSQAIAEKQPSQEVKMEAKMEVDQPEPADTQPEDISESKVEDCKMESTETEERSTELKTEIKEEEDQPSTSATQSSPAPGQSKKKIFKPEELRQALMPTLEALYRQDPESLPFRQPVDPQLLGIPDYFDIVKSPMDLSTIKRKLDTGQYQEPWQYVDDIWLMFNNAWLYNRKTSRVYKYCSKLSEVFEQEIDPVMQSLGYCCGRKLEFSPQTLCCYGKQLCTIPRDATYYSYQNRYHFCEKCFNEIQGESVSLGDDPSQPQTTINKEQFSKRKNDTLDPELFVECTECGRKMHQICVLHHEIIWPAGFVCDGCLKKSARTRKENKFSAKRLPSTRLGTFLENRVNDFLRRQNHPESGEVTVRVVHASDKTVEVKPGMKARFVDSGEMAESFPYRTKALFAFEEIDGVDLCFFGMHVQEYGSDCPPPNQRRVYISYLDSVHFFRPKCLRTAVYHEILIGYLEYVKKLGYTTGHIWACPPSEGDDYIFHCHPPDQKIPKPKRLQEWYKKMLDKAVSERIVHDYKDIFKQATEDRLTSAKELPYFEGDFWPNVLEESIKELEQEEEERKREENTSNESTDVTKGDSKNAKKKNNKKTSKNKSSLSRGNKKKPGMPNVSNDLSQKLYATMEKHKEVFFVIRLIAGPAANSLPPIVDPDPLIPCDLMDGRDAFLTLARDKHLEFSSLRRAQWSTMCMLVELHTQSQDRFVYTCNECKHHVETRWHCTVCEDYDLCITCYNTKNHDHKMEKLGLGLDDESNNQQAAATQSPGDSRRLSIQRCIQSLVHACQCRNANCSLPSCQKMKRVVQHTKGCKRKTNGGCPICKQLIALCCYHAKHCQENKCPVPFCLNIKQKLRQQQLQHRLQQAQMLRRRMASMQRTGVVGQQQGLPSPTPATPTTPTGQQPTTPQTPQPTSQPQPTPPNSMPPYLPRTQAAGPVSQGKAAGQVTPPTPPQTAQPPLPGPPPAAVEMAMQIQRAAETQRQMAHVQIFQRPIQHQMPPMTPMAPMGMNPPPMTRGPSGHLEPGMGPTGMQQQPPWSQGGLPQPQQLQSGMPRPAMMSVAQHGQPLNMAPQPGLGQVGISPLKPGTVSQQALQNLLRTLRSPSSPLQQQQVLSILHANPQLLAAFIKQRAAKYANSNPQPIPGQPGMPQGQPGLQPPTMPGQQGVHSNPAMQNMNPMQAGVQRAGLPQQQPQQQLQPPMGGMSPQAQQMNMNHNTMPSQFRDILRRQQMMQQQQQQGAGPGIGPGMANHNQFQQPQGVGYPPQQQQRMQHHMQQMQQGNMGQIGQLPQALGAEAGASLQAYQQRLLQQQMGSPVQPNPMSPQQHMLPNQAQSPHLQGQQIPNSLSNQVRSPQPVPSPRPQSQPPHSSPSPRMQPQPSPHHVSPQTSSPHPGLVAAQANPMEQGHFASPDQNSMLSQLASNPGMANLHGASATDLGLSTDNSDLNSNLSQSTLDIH

As to `CC1=NN(c2ccc(C(=O)O)cc2)C(=O)/C1=C/c1ccc(-c2cc(C)c(C)cc2[N+](=O)[O-])o1` [Compound 1, C646], the “inhibition against the tested kinases and phosphatases” value in [1] is “low levels of inhibition”. Also, in [1] (17 proteases), the “proteases with > 50% inhibition” value is 7 out of 17. In [2], the “kinases with >50% inhibition” value is reported as 26 out of 200. Besides, the “% inhibition, SAS” value in data set [3] is less than 10%. Moreover, in data set [4], the “% inhibition, MOZ” value is less than 10%. Moreover, the “% inhibition, Rtt109” value in [5] (@ 10 µM, ref 5 (Supplementary References)) is on record as less than 10%.

With `O=c1c2cccnc2sn1Cc1ccc(C(F)(F)F)cc1` [Compound 3, PU141], the “activity vs. most of the targets tested” value in data set [1] (proteases, kinases, phosphatases) is listed as “little activity”. Further, the “inhibition of PCAF in the absence of DTT compared with DTT present” value in data set [6] is “notable exceptions”.

`COc1ccc(S(=O)(=O)ON=C2C=C(C)C(=O)C(C)=C2)cc1` [Compound 5, L002]: in data set [6], the “inhibition of PCAF in the absence of DTT compared with DTT present” value is on record as “notable exceptions”. In addition, the “% inhibition, MYST2” value in [7] (@ 100 µM, HotSpot, ref 9 (Supplementary References)) is listed as 1%.

Regarding `O=C1/C(=C/c2ccc(O)c(Br)c2)CCC/C1=C\c1ccc(O)c(Br)c1` [Compound 12, HAT inhibitor II], the “caspase 3/7 activity” value in [8] is listed as “induce; also recorded: dose-dependent increases”. In addition, the membrane permeability result in [9] is given as “increase; also recorded: dose-dependent increases”.

Regarding `CCCCCCCc1ccc(CCc2cccc(O)c2C(=O)O)cc1` [Compound 15, MG 149], the half-inhibitory concentration (IC50) in data set [10] is 47 µM.

For the compound `Cc1cc2c(C(C)C)c(O)c(O)c(C=O)c2c(O)c1-c1c(C)cc2c(C(C)C)c(O)c(O)c(C=O)c2c1O` [Compound 16, Gossypol], the IC50 in [11] was approximately 25 µM.

With `COc1ccc(/C(Cl)=C(/C=O)c2ccc(OC)cc2)cc1` [Compound 18, Windorphen], the IC50 was more than 100 µM in data set [7] (original report, ref 22 (Supplementary References)); more than 100 µM in data set [12]; more than 100 µM in [13].

With `CCCC1(c2ccccc2)NC(=O)N(CC(=O)N(C)Cc2c(F)cccc2Cl)C1=O` (stereo not drawn) [Compound 21, N-[(2-chloro-6-fluorophenyl)methyl]-2-(2,5-dioxo-4-phenyl-4-propylimidazolidin-1-yl)-N-methylacetamide], the IC50 in data set [5] (original report, ref 25 (Supplementary References)) is 0.056 µM.

For the compound Plumbagin [Compound 8], the “cell death by cell confluence studies” value in data set [14] is “causes cell death”. Besides, the “cytotoxicity by membrane integrity studies” value in data set [9] (30 µM compound, MCF7 cells) is “cytotoxic”. Moreover, the membrane permeability entry in data set [9] is given as “increase; also recorded: dose-dependent increases”.

One may read the IC50 as the point on the concentration scale where inhibition reaches its midpoint.
